# According to US20260306463A1, “SIK INHIBITORS TO TREAT CHRONIC KIDNEY DISEASE” (The General Hospital Corporation, priority 2023, published 2026):
# Tests used:
# [1] = test system: human kidney organoids; test: RNA-seq of cisplatin-injured human kidney organoids; type: cell-based; conditions: for injury markers (Col8al, Fibronectin-1, Serpinel) / markers of intact proximal integrity (Lrp2 and Hnf4a): RNA-seq, cisplatin vs vehicle, or SK-124 vs DMSO within cisplatin-treated organoids
# Procedure: FIGS. 13A-13E. Transcriptomic effects of SK-124 in cisplatin-induced human kidney organoid model. RNA-seq was performed on kidney organoid RNA samples (n=4/group) from FIG. 8. Volcano plot show gene regulated (>2-fold change, p(adj)<0.05) by cisplatin (versus vehicle, A) or within cisplatin-treated organoids by SK-124 (versus DMSO control, B). In Volcano plot, representative fibrosis/injury markers (Col8a1, Fni, Serpinel) and proximal tubule integrity (Lrp2 and Hnf4a) are shown. Scatterplot (C) and heatmap (D) showing integration of individual RNA-seq comparisons.
# Isolated RNA samples from the mouse adenine diet study and human kidney organoid experiment were submitted to Novogene and bulk-RNA sequencing on NovaSeq X Plus Ilumina Novoseq Platform. Sequencing reads were mapped to the mouse reference genome (mm10/GRCm38) or human reference genome (GRCh38/hg38) using Salmon and differential gene expression analysis was performed using DESeq2.
# [2] = test system: bone and kidney; conditions: bone and kidney (ref. 7); cited from earlier work
# [3] = test system: human kidney organoids; test: cisplatin injury of human kidney organoids: immunostaining, organoid size; type: cell-based; conditions: intermittent cisplatin, 5 treatments; for proximal tubule cells: confocal microscopy
# Procedure: FIG. 7. SK-124 preserves human kidney organoid integrity in cisplatin injury model. Human kidney organoids derived from H9 embryonic stem cells were treated with intermittent cisplatin (5 separate treatments) based on published protocols along with the indicated agent. Organoids were cryo-sectioned and immuno-stained with the indicated markers. The top panels show low power images and the bottom panels focus on regions of proximal tubule cells. The graph measures the mean diameter of organoids in the control (no cisplatin), cisplatin+DMSO, and cisplatin+SK-124 treatment groups.
# BJFF human induced pluripotent stem cells (hPSCs) were maintained on Geltrexcoated (Thermo Fisher Scientific) plates using StemFit Basic04 Complete (Ajinomoto Co. Inc.) as previously reported(25). The cells were passaged weekly using Accutase (STEMCELL Technologies) for dissociation and Y27632 (Tocris) for adhesion. Directed differentiation of hPSCs into kidney organoids has been published elsewhere (29). Briefly, hPSCs were differentiated into metanephric mesenchyme cells on day 8 by a three-step directed differentiation protocol. Metanephric mesenchyme was transferred into suspension culture in 96-well ultralow adhesion plates (Coming) and further differentiated into kidney organoids, as previously reported(25). Quality control measures of SIX2 immunostaining on day 8 of differentiation and CDH1, LTL, PODXL, CD146, MEIS1/2/3, and SYTOX-blue staining on day 21 were performed on all batches of kidney organoids to limit batch-to-batch heterogeneity. Kidney organoids were maintained in 200 μl of basal media consisting of Advanced RPMI (Thermo Fisher Scientific) and GlutaMAX (Thermo Fisher Scientific) in 96-well plates, as previously reported. Media changes were conducted three times weekly with removal of 90 [l and addition of 100 μl of fresh basal media.
# For cisplatin induced injury, day 49 organoids were treated with 5 μM cisplatin in basal media after full media change. After 24 hours, full media exchanges were performed. This 24-hour treatment was performed twice a week, on day 52-53, day 56-57, day 59-60, and day 63-64 as well, for a total of five cisplatin treatments. Samples were obtained for RT-qPCR and immunostaining immediately following each 24-hour treatment with cisplatin, and from corresponding controls.
# Following the treatment, the organoids were collected and immediately fixed in 4% PFA in PBS for 1 hour at room temperature, submerged in 30% sucrose overnight at 4° C., then embedded in O.C.T. Compound (4585. Fisher HealthCare). Subsequently, […] frozen sections were prepared via cryo-sectioning by a cryostat. After 1 hr blocking at room temperature, the sections were treated overnight at 4° C. with primary antibodies in antibody dilution buffer (ADB) with biotinylated LTL (1:200, B-1325, Vector), rat anti-CDH1 (1:500, ab11512, Abcam), goat anti-PODXL (1:500, AF1658, R&D Systems), as well as the antibody of interest, either mouse anti-p21 (1:200, NBP2-43697, Novus Biologicals), or rabbit anti-γH2AX (1:100, 2577, Cell Signaling) antibodies. For the optimum labeling of LTL by biotin/streptavidin interaction, the Streptavidin/Biotin Blocking Kit (SP-2002, Vector Laboratories) was applied according to the manufacturer's instructions. After washing, the samples were stained for 1 hour at RT with the nuclear dye-SYTOX Blue (1:500. S 11348, Invitrogen) and the corresponding secondary antibodies in ADB such as streptavidin-AF750 (1:500, S21384, Invitrogen), donkey anti-rat IgG-AF594 (1:500, A21209, Invitrogen), donkey anti-goat IgG-AF555 (1:500, A21432, Invitrogen), and donkey anti-rabbit IgG-AF488 (1:500, A21206, Invitrogen) for γH2AX or donkey anti-mouse IgG-AF488 (1:500, A21202, Invitrogen) for p21 antibodies as well as mouse anti-Meisl/⅔ (1:200, sc-101850, SantaCruz) conjugated antibody, and slides were mounted with Vectashield antifade mounting medium (H1000, Vector Laboratories). […]
Structure (SMILES),"injury markers (Col8al, Fibronectin-1, Serpinel) [1]",markers of intact proximal integrity (Lrp2 and Hnf4a) [1],"genes regulated in cisplatin (versus control) ([1]; scatterplot and heatmap, SK-124 vs DMSO in the setting of injury)",PTH-like effects in vivo [2],cisplatin-induced organoid atrophy [3],organoid cellularity and size in response to cisplatin injury [3],proximal tubule cells [3]
"CCc1nnc(-c2c(OC)cc(-c3cnc4cc(-c5cnn(C)c5)ccn34)cc2OC)o1 [SK-124, 2-[2,6-Dimethoxy-4-[7-(1-methylpyrazol-4-yl)imidazo[1,2-a]pyridin-3-yl]phenyl]-5-ethyl-1,3,4-oxadiazole]",reduced,restored,conversely regulated,PTH-like effects in vivo in bone and kidney,reduced cisplatin-induced organoid atrophy,preserves organoid cellularity and size,preserved proximal tubule cells
"N.N.[Cl][Pt][Cl] [cisplatin, reference compound]",induced,reduced,–,–,–,–,proximal tubular loss
